Experimental data published in patent US20170014524A1, “AURISTATIN-ANTIBODY CONJUGATES AND USES THEREOF” (The California Institute for Biomedical Research, priority 2015, published 2017).
Where a SMILES comes first, the peptide text is derived from it. [ ]: non-standard residue; d: D form. The star is where a group is joined. Dolaproine = CO[C@@H]([C@@H]1CCCN1)[C@@H](C)C(=O)O; Dil = CC[C@H](C)[C@H](NC)[C@@H](CC(=O)O)OC; Doe = c1ccc(C[C@H](N*)c2nccs2)cc1; NMeV = CN[C@H](C(=O)O)C(C)C

Tests used:
Type in all cases: cell-based
Settings in all cases: 600 nM to 30 pM, 4 days at 37° C.
Ramos (CXCR4+) cells = assay: Cytotoxicity (CellTiter-Glo cell viability, 4 days) in Ramos cells
Protocol: (§1) Cell viabilities were measured by addition of CellTiter-Glo (Promega) and the luminescent signals were read by EnVision plate reader.
(§2) The following illustrative examples are representative of embodiments of the compositions and methods described herein and are not meant to be limiting in any way. All cell lines were purchased from ATCC unless otherwise stated. Ramos, Jurkat, OPM-2 cells were cultured in RPMI with 10% FBS and 100 U/mL Penicillin Streptomycin. MDA-MB-231 cells were cultured in DMEM (high glucose) with 10% FBS, 1 mM sodium pyruvate, and 100 U/mL Penicillin Streptomycin. SKBR-3 cells were cultured in DMEM with 10% FBS and 1x Antibiotic-Antimycotic (100 U/mL Penicillin Streptomycin, 0.25 μg/mL Fungizone). […]
(§3) Ramos (CXCR4+), Jurkat (CXCR4+), and MDA-MB-231 (CXCR4−) cells were treated with either small molecule drugs, anti-CXCR4 (SEQ ID NOS: 3, 4), or anti-CXCR4-auristatin conjugates with concentrations ranging from 600 nM to 30 pM for 4 days at 37° C. Cell viabilities were measured by addition of CellTiter-Glo (Promega) and the luminescent signals were read by EnVision plate reader.
(§4) Briefly, 1000 cells/well were seeded in a 384-well plate (45 uL/well with their corresponding media) and incubated at 37° C. overnight. […] Plates were shaken and incubated for at least 10 min before the generated luminescent signals were read using PerkinElmer EnVision Multilabel Reader.

Jurkat (CXCR4+) cells = assay: Cytotoxicity (CellTiter-Glo cell viability, 4 days) in Jurkat cells
Protocol: as §1, §2, §3, §4

[1] = test system: MDA-MB-231 (CXCR4−) cells; assay: Cytotoxicity (CellTiter-Glo cell viability, 4 days) in MDA-MB-231 cells
Protocol: as §1, §2, §3, §4

CC[C@H](C)[C@@H]([C@@H](CC(=O)N1CCC[C@H]1[C@H](OC)[C@@H](C)C(=O)N[C@@H](Cc1ccccc1)c1nccs1)OC)N(C)C(=O)[C@@H](NC(=O)[C@@H](NC)C(C)C)C(C)C [MMAD, monomethyl auristatin D] (H-[NMeV]V[Dil][Dolaproine]-Doe) was tested, and the IC50 (Ramos (CXCR4+) cells) was 1.4 nM, the IC50 (Jurkat (CXCR4+) cells) was 2.8 nM and the IC50 [1] was 5.2 nM.
